Data: patent US10919896B2, “Preparation and uses of pyrimidinone derivatives” (Cancer Research Technology Limited, priority 2016, dated 2021)
Where a name gives a salt, the structure may show the parent alone.

test system: Cdc7 (pS40MCM2 levels in HCT116 cells); assay: Cdc7 Cell Pharmacodynamics Assay Method 2A: pS40MCM2 levels in HCT116 cells, 6 hours; type: cell-based; conditions: Homo sapiens, HCT-116, read-out: Biomarker Method 2A (pEC50) (converted)
Text: This protocol describes a method to investigate the inhibition of Cdc7 activity by measuring pS40MCM2 levels in cells, after treatment with compounds.
• HCT116 cells (ATCC, #CCL-247) • McCoys 5A with L-glutamine (Cellgro, #10-050-CV) • 10% FCS (Cellgro, #35-010-CV) • D-PBS without CaCl2 and MgCl2 (Cellgro, #21-031-CV) • Trypsin/EDTA (Cellgro, #25-052-CL) • BSA (Calbiochem, 126593) • Cell Extraction Buffer (Invitrogen FNN0011) • Protease inhibitor cocktail (Sigma P-2714) • PMSF 0.3M stock in DMSO (Sigma P7626) • Antibody-rabbit pMCM2 Ser40 (Abcam, AB133243) • Antibody-goat MCM2 (Bethyl #A300-122A) • Antibody-goat Anti Rabbit IgG HRP (Thermo, 31462) • SuperSignal ELISA Pico Chemiluminescent Substrate (Perbio Science UK Ltd 37069) • 10×PBS (Growcells, MRGF-6236) • Triton X100 (Sigma, P-T8787) • DMSO (Fisher, D128-1) • 2-Propanol (J. T. Baker, 9095-03) Method • Seed 1×10^6 HCT116 cells into each of two 175 cm^2 flask containing 30 mL Cell Growth Media and incubate at 37° C., 5% CO2 for 3 days. • Harvest the cells from one T175 cm^2 flask and count. • Dilute with Cell Growth Media to a cell density of 2×10^5. Dispense 100 μL to each well (20,000 HCT116 cells/well) of TC treated 96-well plate(s). • Allow cells to settle overnight in incubator set at 37° C. and 5% CO2. • Cell treatment: Transfer 0.25 μL/well from the compound plate to the wells of the cell plate(s). This is a 1:400 dilution of compound in the assay. • Once all cells are treated place the cells back to the incubator and incubate for either 6 hours (Method 2A) or 18 hours (Method 2B). • Dilute the capture antibody (total MCM2#A300-122A) 1 in 250 in the required volume of PBS (5 mL per assay plate, plus 5 mL for dead volume) and add 50 μL to each well of a Hybond plate except wells A12 & B12. Seal the plate and incubate at room temperature for a minimum of 2 hours. • Defrost aliquot of Invitrogen Cell Extraction Buffer (FNN0011) on ice and supplement with appropriate volume of both Sigma protease inhibitor cocktail (P-2714) and PMSF (final conc 1 mM from a 1 M stock in DMSO). • After the 6 hour or 18 hour cell treatment time, tap out the media from the assay plates and place them in the −70° C. freezer for at least 5 minutes. • Flick out the remaining liquid in the previously prepared capture Ab plate(s) and add 200 μL 2% BSA per well. Incubate for 1 hour at room temperature. • Remove plates from freezer and add 20 μL of ice cold complete lysis buffer. Incubate cells for 30 minutes at 4° C. • Add 30 μL per well 2% BSA • At the end of the 1 hour incubation, wash the Capture/ELISA plate(s) with Wash Buffer on the BioTek plate washer. • Transfer 40 μL per well of the lysis plate(s) to the same wells in the Capture/ELISA plate. Incubate cells overnight at 4° C. • At the end of the overnight incubation, wash the ELISA plate(s) with Wash Buffer on BioTek plate washer. • Prepare Detection Antibody Buffer and dispense 50 μL to all wells of ELISA plate(s) except wells G1 & H1. Cover plate and incubate at room temperature for 2 hours with gentle shaking. • At the end of the 2 hour incubation, wash the ELISA plate(s) with Wash Buffer on the BioTek plate washer. • Prepare the Conjugated Antibody Buffer and dispense 50 μL to all wells of ELISA plate(s). • Cover the plate and incubate at room temperature for 1 hour with gentle shaking. • At the end of the 1 hour incubation, wash the ELISA plate(s) with Wash Buffer on the BioTek plate washer. • Prepare Substrate Buffer and dispense 50 μL to all wells of ELISA plate(s). • Incubate for a minimum of 10 minutes and read plates on the EnVision 2100 Multilabel Reader (Mirror: Luminescence (404) & Luminescence 700 (212); Measurement Height: 6.5 mm; Measurement Time: 0.2 s). Method 3

| Structure (SMILES) | EC50 [nM] |
| --- | --- |
| C[C@H]1CN(c2nc(-c3ccncc3)[nH]c(=O)c2Cl)CCN1 [Compound 130] | 776 |
| O=c1[nH]c(-c2ccncc2)nc(N2CCN[C@H](C(F)(F)F)C2)c1Cl [Compound 139] | 851 |
| O=c1[nH]c(-c2ccncc2)nc(N2CCN(CC(F)F)CC2)c1Cl [Compound 147] | 427 |
| CC(C)[C@H]1CN(c2nc(-c3ccnc(F)c3)[nH]c(=O)c2Cl)CCN1 [Compound 170] | 21.9 |
| O=c1[nH]c(-c2ccncc2)nc(N2CCN[C@@H](C(F)(F)F)C2)c1Cl [Compound 180] | 37.2 |
| CC(C)(C)[C@H]1CN(c2nc(-c3ccncc3)[nH]c(=O)c2F)CCN1 [Compound 185] | 85.1 |
| O=c1[nH]c(-c2ccnc(F)c2)nc(N2CCNCC(F)(F)C2)c1Cl [Compound 312, 5-chloro-4-(6,6-difluoro-1,4-diazepan-1-yl)-2-(2-fluoro-4-pyridyl)-1H-pyrimidin-6-one hydrochloride] | 11.5 |
| O=c1[nH]c(-c2ccnc(F)c2)nc(N2CCOCC2)c1Cl [Compound 316] | 44.7 |
| N[C@H]1CCCN(c2nc(-c3ccnc(F)c3)[nH]c(=O)c2Cl)C1 [Compound 317] | 219 |
| N[C@@H]1CCCN(c2nc(-c3ccnc(F)c3)[nH]c(=O)c2Cl)C1 [Compound 319] | 126 |
| C[C@@H]1CNCCN1c1nc(-c2ccnc(F)c2)[nH]c(=O)c1Cl [Compound 323] | 12 |
| O=c1[nH]c(-c2ccnc(F)c2)nc(N2CCNCC2)c1Cl [Compound 360] | 83.2 |
| C[C@@H]1CNCCN1c1nc(-c2ccncc2)[nH]c(=O)c1Cl [Compound 364] | 26.9 |
